Laboratory results as given in the OligoGym collection.
HELM strings list units from the 5' end as sugar, base in round brackets, then linkage (d deoxyribose, r ribose, m 2'-O-methyl, p phosphodiester). Strings are as the collection lists them; they lack the last nucleoside at the 3' end of the tested compound. [moe] = 2'-O-(2-methoxyethyl) (MOE); [sp] = phosphorothioate linkage; [m5C] = 5-methylcytosine

Biological target: PRNP
Experiment: mouse, dose not given
Details: ASO

Substance	3 h FOB score
RNA1{[moe](G)[sp].[moe](G)p.[moe](A)p.[moe](A)p.[moe](T)[sp].d(G)[sp].d([m5C])[sp].d([m5C])[sp].d(A)[sp].d([m5C])[sp].d(A)[sp].d(T)[sp].d(A)[sp].d(T)[sp].d(A)[sp].[moe](G)p.[moe](G)p.[moe](G)[sp].[moe](T)}$$$$ (last 3' nucleoside missing)	4 score 0-7
RNA1{[moe](G)[sp].[moe](G)p.[moe](G)p.[moe](A)p.[moe](T)[sp].d(G)[sp].d(A)[sp].d(T)[sp].d([m5C])[sp].d(T)[sp].d(G)[sp].d([m5C])[sp].d(A)[sp].d(A)[sp].d(T)[sp].[moe](T)p.[moe](G)p.[moe](T)[sp].[moe](T)}$$$$ (last 3' nucleoside missing)	4 score 0-7
RNA1{[moe](G)[sp].[moe](G)p.[moe](T)p.[moe](G)p.[moe](A)[sp].d(T)[sp].d(T)[sp].d(T)[sp].d(T)[sp].d(T)[sp].d(T)[sp].d([m5C])[sp].d([m5C])[sp].d(T)[sp].d(T)[sp].[moe](T)p.[moe]([m5C])p.[moe](T)[sp].[moe](T)}$$$$ (last 3' nucleoside missing)	1 score 0-7
RNA1{[moe](G)[sp].[moe](G)p.[moe](T)p.[moe](T)p.[moe](A)[sp].d(G)[sp].d([m5C])[sp].d(T)[sp].d(T)[sp].d(T)[sp].d(T)[sp].d(T)[sp].d(T)[sp].d(T)[sp].d([m5C])[sp].[moe](A)p.[moe]([m5C])p.[moe](T)[sp].[moe](G)}$$$$ (last 3' nucleoside missing)	4.75 score 0-7
RNA1{[moe](G)[sp].[moe](G)p.[moe](T)p.[moe](T)p.[moe](A)[sp].d([m5C])[sp].d(A)[sp].d(T)[sp].d(A)[sp].d(A)[sp].d(T)[sp].d(G)[sp].d(T)[sp].d(T)[sp].d([m5C])[sp].[moe](A)p.[moe](T)p.[moe](T)[sp].[moe](T)}$$$$ (last 3' nucleoside missing)	5 score 0-7
RNA1{[moe](G)[sp].[moe](G)p.[moe](T)p.[moe](T)p.[moe](A)p.[moe]([m5C])p.d(A)[sp].d(T)[sp].d(A)[sp].d(A)[sp].d(T)[sp].d(G)[sp].d(T)[sp].d(T)[sp].d([m5C])[sp].d(A)[sp].[moe](T)p.[moe](T)[sp].[moe](T)}$$$$ (last 3' nucleoside missing)	3.75 score 0-7
RNA1{[moe](G)[sp].[moe](G)p.[moe](T)p.[moe](T)p.[moe](T)[sp].d(T)[sp].d(T)[sp].d(G)[sp].d(A)[sp].d([m5C])[sp].d(A)[sp].d(A)[sp].d(T)[sp].d(T)[sp].d(A)[sp].[moe](T)p.[moe](G)p.[moe](A)[sp].[moe](G)}$$$$ (last 3' nucleoside missing)	5 score 0-7
RNA1{[moe](G)[sp].[moe](G)p.[moe](T)p.[moe](T)p.[moe](T)[sp].d(T)[sp].d(T)[sp].d(G)[sp].d(G)[sp].d([m5C])[sp].d(T)[sp].d(T)[sp].d(A)[sp].d([m5C])[sp].d(T)[sp].[moe]([m5C])p.[moe](G)p.[moe](G)[sp].[moe]([m5C])}$$$$ (last 3' nucleoside missing)	4 score 0-7
RNA1{[moe](G)[sp].[moe](G)p.[moe](T)p.[moe](T)p.[moe]([m5C])[sp].d(A)[sp].d(G)[sp].d(T)[sp].d(G)[sp].d(T)[sp].d(T)[sp].d(G)[sp].d(T)[sp].d(G)[sp].d(A)[sp].[moe]([m5C])p.[moe](A)p.[moe](A)[sp].[moe](T)}$$$$ (last 3' nucleoside missing)	7 score 0-7
RNA1{[moe](G)[sp].[moe](G)p.[moe]([m5C])p.[moe](A)p.[moe](A)[sp].d(A)[sp].d(G)[sp].d(G)[sp].d(T)[sp].d(A)[sp].d(T)[sp].d(T)[sp].d(T)[sp].d([m5C])[sp].d(A)[sp].[moe](G)p.[moe](A)p.[moe]([m5C])[sp].[moe](T)}$$$$ (last 3' nucleoside missing)	6.5 score 0-7
RNA1{[moe](G)[sp].[moe](G)p.[moe]([m5C])p.[moe](A)p.[moe]([m5C])[sp].d(T)[sp].d(T)[sp].d(T)[sp].d([m5C])[sp].d(T)[sp].d(T)[sp].d(T)[sp].d(T)[sp].d(T)[sp].d(A)[sp].[moe](T)p.[moe](T)p.[moe](T)[sp].[moe]([m5C])}$$$$ (last 3' nucleoside missing)	1 score 0-7
RNA1{[moe](G)[sp].[moe](G)p.[moe]([m5C])p.[moe](T)p.[moe](T)[sp].d(A)[sp].d([m5C])[sp].d(T)[sp].d([m5C])[sp].d(G)[sp].d(G)[sp].d([m5C])[sp].d(T)[sp].d(T)[sp].d(G)[sp].[moe](T)p.[moe](T)p.[moe]([m5C])[sp].[moe]([m5C])}$$$$ (last 3' nucleoside missing)	3.75 score 0-7
RNA1{[moe](G)[sp].[moe](T)[sp].[moe]([m5C])p.[moe](A)p.[moe](G)p.[moe](T)p.[moe](T)p.d(T)[sp].d(T)[sp].d(T)[sp].d([m5C])[sp].d([m5C])[sp].d([m5C])[sp].d([m5C])[sp].d(A)[sp].d([m5C])[sp].d(A)[sp].[moe](T)p.[moe](A)}$$$$ (last 3' nucleoside missing)	0 score 0-7
RNA1{[moe](G)[sp].[moe](T)p.[moe](A)p.[moe](T)p.[moe](A)[sp].d(A)[sp].d(T)[sp].d(T)[sp].d(T)[sp].d(T)[sp].d(T)[sp].d(T)[sp].d(T)[sp].d(A)[sp].d([m5C])[sp].[moe]([m5C])p.[moe](T)p.[moe](G)[sp].[moe](G)}$$$$ (last 3' nucleoside missing)	0 score 0-7
RNA1{[moe](G)[sp].[moe](T)p.[moe](A)p.[moe](T)p.[moe](G)[sp].d(T)[sp].d([m5C])[sp].d(A)[sp].d(A)[sp].d(A)[sp].d(A)[sp].d(T)[sp].d([m5C])[sp].d(A)[sp].d(T)[sp].[moe](T)p.[moe]([m5C])p.[moe](T)[sp].[moe](G)}$$$$ (last 3' nucleoside missing)	6 score 0-7
RNA1{[moe](G)[sp].[moe](T)p.[moe](A)p.[moe](T)p.[moe]([m5C])[sp].d(A)[sp].d(T)[sp].d(G)[sp].d(T)[sp].d(G)[sp].d(G)[sp].d([m5C])[sp].d([m5C])[sp].d(T)[sp].d([m5C])[sp].[moe]([m5C])p.[moe](T)p.[moe](A)[sp].[moe](A)}$$$$ (last 3' nucleoside missing)	5.5 score 0-7
RNA1{[moe](G)[sp].[moe](T)p.[moe](G)p.[moe](A)p.[moe](A)[sp].d(T)[sp].d(A)[sp].d(T)[sp].d(G)[sp].d(T)[sp].d([m5C])[sp].d([m5C])[sp].d(T)[sp].d([m5C])[sp].d(T)[sp].[moe](A)p.[moe](G)p.[moe]([m5C])[sp].[moe]([m5C])}$$$$ (last 3' nucleoside missing)	2.5 score 0-7
RNA1{[moe](G)[sp].[moe](T)p.[moe](G)p.[moe](A)p.[moe]([m5C])[sp].d(A)[sp].d(A)[sp].d(T)[sp].d(A)[sp].d(T)[sp].d(T)[sp].d(T)[sp].d(A)[sp].d([m5C])[sp].d(T)[sp].[moe]([m5C])p.[moe](T)p.[moe](T)[sp].[moe](G)}$$$$ (last 3' nucleoside missing)	1 score 0-7
RNA1{[moe](G)[sp].[moe](T)p.[moe](G)p.[moe](G)p.[moe](A)[sp].d(A)[sp].d(G)[sp].d(A)[sp].d([m5C])[sp].d(T)[sp].d(T)[sp].d(G)[sp].d(T)[sp].d(G)[sp].d(T)[sp].[moe](T)p.[moe](A)p.[moe](G)[sp].[moe](A)}$$$$ (last 3' nucleoside missing)	5.25 score 0-7
RNA1{[moe](G)[sp].[moe](T)p.[moe](G)p.[moe](T)p.[moe](T)[sp].d(G)[sp].d(T)[sp].d(G)[sp].d(A)[sp].d([m5C])[sp].d(A)[sp].d(A)[sp].d(T)[sp].d(A)[sp].d(T)[sp].[moe](T)p.[moe](T)p.[moe](A)[sp].[moe]([m5C])}$$$$ (last 3' nucleoside missing)	1 score 0-7
RNA1{[moe](G)[sp].[moe](T)p.[moe](G)p.[moe](T)p.[moe](T)[sp].d([m5C])[sp].d([m5C])[sp].d(A)[sp].d(T)[sp].d([m5C])[sp].d([m5C])[sp].d(T)[sp].d([m5C])[sp].d([m5C])[sp].d(A)[sp].[moe](G)p.[moe](G)p.[moe]([m5C])[sp].[moe](T)}$$$$ (last 3' nucleoside missing)	1 score 0-7
RNA1{[moe](G)[sp].[moe](T)p.[moe](G)p.[moe](T)p.[moe]([m5C])[sp].d(A)[sp].d(T)[sp].d(A)[sp].d(A)[sp].d(T)[sp].d(T)[sp].d(T)[sp].d(T)[sp].d([m5C])[sp].d(T)[sp].[moe](T)p.[moe](A)p.[moe](G)[sp].[moe]([m5C])}$$$$ (last 3' nucleoside missing)	0.5 score 0-7
RNA1{[moe](G)[sp].[moe](T)p.[moe](G)p.[moe](T)p.[moe]([m5C])p.[moe](A)p.d(T)[sp].d(A)[sp].d(A)[sp].d(T)[sp].d(T)[sp].d(T)[sp].d(T)[sp].d([m5C])[sp].d(T)[sp].d(T)[sp].[moe](A)p.[moe](G)[sp].[moe]([m5C])}$$$$ (last 3' nucleoside missing)	0 score 0-7
RNA1{[moe](G)[sp].[moe](T)p.[moe](G)p.[moe](T)p.[moe]([m5C])p.d(A)[sp].d(T)[sp].d(A)[sp].d(A)[sp].d(T)[sp].d(T)[sp].d(T)[sp].d(T)[sp].d([m5C])[sp].[moe](T)[sp].[moe](T)p.[moe](A)p.[moe](G)}$$$$ (last 3' nucleoside missing)	0 score 0-7
RNA1{[moe](G)[sp].[moe](T)p.[moe](G)p.[moe](T)p.d([m5C])[sp].d(A)[sp].d(T)[sp].d(A)[sp].d(A)[sp].d(T)[sp].d(T)[sp].d(T)[sp].d(T)[sp].d([m5C])[sp].[moe](T)p.[moe](T)p.[moe](A)p.[moe](G)[sp].[moe]([m5C])}$$$$ (last 3' nucleoside missing)	0 score 0-7
RNA1{[moe](G)[sp].[moe](T)p.[moe](G)p.[moe]([m5C])p.[moe](T)[sp].d(T)[sp].d(A)[sp].d(T)[sp].d(T)[sp].d(A)[sp].d(T)[sp].d(T)[sp].d([m5C])[sp].d(A)[sp].d(T)[sp].[moe](G)p.[moe](T)p.[moe](T)[sp].[moe]([m5C])}$$$$ (last 3' nucleoside missing)	0.5 score 0-7
